Reference: patent US9139596B2, “Cyclic prodrugs of duocarmycin analogs” (The Scripps Research Institute, priority 2012, dated 2015)
Like-named read-outs stand apart in the source and are kept apart here.

Columns and labels:
[1] = system: w794 DNA; test: DNA alkylation in cell-free systems; assay type: biochemical
Text: Lane 1, control DNA; lanes 2-5, Sanger G, C, A, and T sequencing reactions; lanes 6-8, (+)-1 (1×10^−4 to 1×10^−6); lanes 9-10, (−)−1 (1×10^−3 to 1×10^−4); lanes 11-12, (+)-6 (1×10^−1 to 1×10^−2).

[2] = system: L1210 murine leukemia cells implanted ip; test: In vivo antitumor activity (L1210, ip); settings: for Surviving Mice: live animals after 250 days
Experimental: Therefore, the in vivo antitumor activity of (+)-6 was assessed alongside seco-CBI-indole2 (4) in an antitumor model consisting of L1210 murine leukemia cells implanted ip into […] which has been used historically as an initial antitumor model for comparisons in this class.^11,12,14,15 A dose range of 300 to 9000 μg/kg for prodrug (+)-6 (scaled to its in vitro cytotoxic activity IC50) and 60 to 500 μg/kg for seco-CBI-indole2 (4) and a dosing schedule (administered three times ip on days 1, 5, and 9) for both compounds was employed.
B6D2F1 mice were injected intraperitoneal (i.p.) with syngeneic L1210 cells (1×10^6) on day 0. Ten mice were randomly assigned to control vehicle or treatment groups for compounds (+)-4 and (+)-6 at doses of 60, 100, 250, and 500 μg/kg/inj for (+)-4 or 300, 1000, 3000, and 9000 μg/kg/inj for (+)-6. Compounds (+)-4 and (+)-6 were formulated in 100% DMSO, and injected i.p. on study days 1, 5, and 9. Following injection of tumor cells, animals were monitored daily and weighed two times per week. Percent survival (T/C) for treated and control groups were determined by dividing the total survival days for each treatment group by the total survival days for the control group and multiplying ×100. All animal studies were carried out in the animal facilities of The University of Kansas Medical Center with strict adherence to the guidelines of the IACUC Animal Welfare Committee of KUMC (IACUC approval #2009-1837).

[3] = system: L1210 murine leukemia cell line; test: In vitro cytotoxic activity (cell growth inhibition), L1210; assay type: cell-based; settings: for IC50: Mus musculus
Experimental: In Vitro Cytotoxic Activity. Both (+)- and ent-(−)-6 and their N-Boc precursors 16 were tested for cell growth inhibition in a cytotoxic assay with the L1210 murine leukemia cell line.

[4] = Stability in mouse plasma (Table 4)
[5] = Stability in pH 7.0 phosphate buffer; settings: for half-life: buffer
[6] = Stability in human plasma
Experimental: Reagents and solvents were purchased reagent-grade and used without further purification. Pooled human plasma, with sodium citrate as an anticoagulant, was purchased from Innovative Research and stored at −20° C. […] All reactions were performed in oven-dried glassware under an Ar atmosphere. Evaporation and concentration in vacuo was performed at 20° C. […] Chiral phase HPLC was performed using a Shimadzu HPLC on a semi-preparative Diacel ChiralCel OD column (0.46 cm×25 cm) with a flow rate of 7 mL/min and with UV detection at λ=254 nm. Optical rotations were determined on a Rudolf Research Analytical Autopol III Automatic Polarimeter (λ=589 nm, 25° C.).

[7] = 300 μg/kg i.p. on days 1, 5, and 9
[8] = 1000 μg/kg i.p. on days 1, 5, and 9
[9] = 3000 μg/kg i.p. on days 1, 5, and 9
[10] = 9000 μg/kg i.p. on days 1, 5, and 9

SMILES: O=C1Nc2cccc3c4c(cc(c23)O1)N(C(=O)c1cc2cc(NC(=O)c3cc5ccccc5[nH]3)ccc2[nH]1)C[C@H]4CCl [Compound 6, N-(2-(10-(Chloromethyl)-5-oxo-5,8,9,10-tetrahydro-4H-pyrrolo[3′,2′:5,6]naphtho[1,8-de][1,3]oxazine-8-carbonyl)-1H-indol-5-yl)-1H-indole-2-carboxamide]
- DNA alkylation [1]: incapable of alkylating DNA
- MSP (Mean Survival Period) [2, 7]: 24.7 days
- T/C (Treated/Control MSP x 100) [2, 7]: 140
- Surviving Mice [2, 7]: 0/10
- MSP (Mean Survival Period) [2, 8]: >48.5 days
- T/C (Treated/Control MSP x 100) [2, 8]: >275
- Surviving Mice [2, 8]: 1/10
- MSP (Mean Survival Period) [2, 9]: >55.3 days
- T/C (Treated/Control MSP x 100) [2, 9]: >310
- Surviving Mice [2, 9]: 1/10
- MSP (Mean Survival Period) [2, 10]: >172.6 days
- T/C (Treated/Control MSP x 100) [2, 10]: >980
- T/C (Treated/Control MSP x 100) ([2]; 9000 μg/kg i.p. on days 1, 5, and 9, listed as (+)-6): > 980
- Surviving Mice [2, 10]: 5/10
- antitumor activity over the dose range examined ([2]; 300 to 9000 μg/kg (30-fold range) i.p. on days 1, 5, and 9): productive antitumor activity over the entire and much larger dose range examined
- tolerance at the injection sites ([2]; ip administration, compared with the free drug): tolerated at the injection sites of the animals much better than the free drug
- fold less potent than the parent drug 20 ([3]; L1210): 30-70 fold
- fold more potent than its unnatural enantiomer ([3]; L1210): 6 fold
- potency of natural (S)- versus unnatural (R)-enantiomer ([3]; L1210): about one order of magnitude more potent
- times more potent than its N-Boc precursor 16 ([3]; L1210): 100 to 1000 times
- fold less potent than the free drug seco-CBI-indole2 4 ([3]; L1210, natural enantiomer): approximately 200 fold
- IC50 ([3]; L1210, natural (S)-enantiomer, Table 4, read-out: In vitro IC50 L1210 natural): 6.6 nM
- IC50 ([3]; L1210, natural enantiomer, Table 2, read-out: IC50 L1210 natural): 6.6 nM
- IC50 ([3]; L1210, unnatural (R)-enantiomer, Table 4, read-out: In vitro IC50 L1210 unnatural): 40 nM
- IC50 ([3]; L1210, unnatural enantiomer, Table 2, read-out: IC50 L1210 unnatural): 40 nM
- IC50 ([3]; L1210, stated range, read-out: in vitro cellular potency (IC50)): 1 to 10 nM
- half-life [4]: 12 h
- half-life ([5]; pH 7, Stability t1/2, pH 7.0 phosphate buffer, Table 4): > 168 h
- half-life ([5]; pH 7, t1/2, pH 7.0 phosphate buffer): > 672 h
- cleavage of the prodrug ([5]; pH 7.0 phosphate buffer): no cleavage observed
- free drug release ([6]; human plasma, 48 h): 5%
- half-life ([6]; human, plasma): > 48 h
